Measured values from patent US12344597B2, “Alkoxy-substituted pyridinyl derivatives as LPA1 receptor antagonists and their use in the treatment of fibrosis” (IDORSIA PHARMACEUTICALS LTD, priority 2018, dated 2025).

Target: human LPA1 receptor (Homo sapiens (Human), UniProt Q92633)
Assay: Beta-arrestin recruitment assay to determine IC50 values for human LPAR1
Format: cell-based
Details: antagonist mode, Tango EDG2-bla U2OS cells, LPA 18:1 500 nM final
In short: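 Antagonist IC50 = concentration giving 50% inhibition of maximal LPA response. Read-out is beta-lactamase reporter activity after arrestin-protease recruitment in U2OS cells bearing LPA1-TEV-Gal4-VP16 construct; cells pre-incubated 20 h, 37 °C, 5% CO2.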

Sequence of human LPA1 receptor (Q92633 whole entry): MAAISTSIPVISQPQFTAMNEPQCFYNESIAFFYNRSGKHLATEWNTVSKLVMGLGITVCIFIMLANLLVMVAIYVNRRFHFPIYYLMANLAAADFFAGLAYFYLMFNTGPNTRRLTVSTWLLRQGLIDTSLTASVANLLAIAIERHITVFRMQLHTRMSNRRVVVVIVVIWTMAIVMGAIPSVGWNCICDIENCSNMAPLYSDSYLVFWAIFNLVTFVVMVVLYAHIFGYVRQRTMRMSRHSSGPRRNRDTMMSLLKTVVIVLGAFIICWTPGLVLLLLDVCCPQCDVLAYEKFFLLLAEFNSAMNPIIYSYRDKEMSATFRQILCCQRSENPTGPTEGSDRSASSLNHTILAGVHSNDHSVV

With `Cc1ccc(NC(=O)C2(c3ccccc3C(C)C)CN(C(=O)N[C@H](C(=O)O)C(C)C)C2)c(OC(F)F)n1` [Ex 17-7, (3-((2-(difluoromethoxy)-6-methylpyridin-3-yl)carbamoyl)-3-(2-isopropylphenyl)azetidine-1-carbonyl)-L-valine] the IC50 was 26 nM.

`COc1cc(Cl)cnc1NC(=O)C1(c2ccccc2C(C)C)CNC1` [Ex 70, N-(5-chloro-3-methoxypyridin-2-yl)-3-(2-isopropylphenyl)azetidine-3-carboxamide] gave an IC50 of 866 nM.

Compound `Cc1ccc(NC(=O)C2(c3ccccc3C(C)C)CN(S(=O)(=O)c3cn[nH]c3C(=O)O)C2)c(OC(F)F)n1` [Ex 13-23, 4-((3-((2-(difluoromethoxy)-6-methylpyridin-3-yl)carbamoyl)-3-(2-isopropylphenyl)azetidin-1-yl)sulfonyl)-1H-pyrazole-5-carboxylic acid] has an IC50 of 100 nM.

Compound `CC(C)c1ccccc1C1(C(=O)Nc2cc(F)cnc2OC(F)F)CN(S(N)(=O)=O)C1` [Ex 15-15, N-(2-(difluoromethoxy)-5-fluoropyridin-3-yl)-3-(2-isopropylphenyl)-1-sulfamoylazetidine-3-carboxamide] has an IC50 of 10 nM.

Compound `Cc1ccc(NC(=O)C2(c3ccccc3C(C)C)CN(C(=O)CC3NCCNC3=O)C2)c(OC(F)F)n1` (centres unmarked) [Ex 12-46, N-(2-(difluoromethoxy)-6-methylpyridin-3-yl)-3-(2-isopropylphenyl)-1-(2-(3-oxopiperazin-2-yl)acetyl)azetidine-3-carboxamide] has an IC50 of 556 nM.

Compound `COc1nc(Cl)ccc1NC(=O)C1(c2ccccc2C(C)C)CNC1` [Ex 5, N-(6-chloro-2-methoxypyridin-3-yl)-3-(2-isopropylphenyl)azetidine-3-carboxamide] has an IC50 of 594 nM.

With `Cc1ccc(NC(=O)C2(c3c(F)cccc3C(C)C)CNC2)c(OC(F)F)n1` [Ex 36, N-(2-(difluoromethoxy)-6-methylpyridin-3-yl)-3-(2-fluoro-6-isopropylphenyl)azetidine-3-carboxamide] the IC50 was 8 nM.

For `Cc1ccc(NC(=O)C2(c3ccccc3C(C)C)CN(S(=O)(=O)CC(C)(C)C(=O)O)C2)c(OC(F)F)n1` [Ex 13-12, 3-((3-((2-(difluoromethoxy)-6-methylpyridin-3-yl)carbamoyl)-3-(2-isopropylphenyl)azetidin-1-yl)sulfonyl)-2,2-dimethylpropanoic acid], the IC50 was 4 nM.

`CCCc1ccccc1C1(C(=O)Nc2ccc(C)nc2OC(F)F)CNC1` [Ex 29, N-(2-(difluoromethoxy)-6-methylpyridin-3-yl)-3-(2-propylphenyl)azetidine-3-carboxamide] gave an IC50 of 420 nM.

In the case of `Cc1ccc(NC(=O)C2(c3cc(F)ccc3C(C)C)CN(C(=O)CC(C)(C)C(=O)O)C2)c(OC(F)F)n1` [Ex 39-5, 4-(3-((2-(difluoromethoxy)-6-methylpyridin-3-yl)carbamoyl)-3-(5-fluoro-2-isopropylphenyl)azetidin-1-yl)-2,2-dimethyl-4-oxobutanoic acid], the IC50 is reported as 10 nM.

`Cc1ccc(NC(=O)C2(c3ccccc3C(C)C)CN(C(=O)CNCC3(O)CC3)C2)c(OC(F)F)n1` [Ex 12-57, N-(2-(difluoromethoxy)-6-methylpyridin-3-yl)-1-(((1-hydroxycyclopropyl)methyl)glycyl)-3-(2-isopropylphenyl)azetidine-3-carboxamide] gave an IC50 of 17 nM.

Work on `Cc1ccc(NC(=O)C2(c3ccccc3C(C)C)CN(Cc3cn(CC(=O)O)nn3)C2)c(OC(F)F)n1` [Ex 11-49, 2-(4-((3-((2-(difluoromethoxy)-6-methylpyridin-3-yl)carbamoyl)-3-(2-isopropylphenyl)azetidin-1-yl)methyl)-1H-1,2,3-triazol-1-yl)acetic acid] yielded an IC50 of 547 nM.

With `COC(=O)C(C)(C)OC(=O)N1CC(C(=O)Nc2ccc(C)nc2OC(F)F)(c2ccccc2C(C)C)C1` [Ex 14-6, 1-methoxy-2-methyl-1-oxopropan-2-yl 3-((2-(difluoromethoxy)-6-methylpyridin-3-yl)carbamoyl)-3-(2-isopropylphenyl)azetidine-1-carboxylate] the IC50 was 143 nM.

Work on `CCN(CC(=O)O)CC(=O)N1CC(C(=O)Nc2ccc(C)nc2OC(F)F)(c2ccccc2C(C)C)C1` [Ex 58, N-(2-(3-((2-(difluoromethoxy)-6-methylpyridin-3-yl)carbamoyl)-3-(2-isopropylphenyl)azetidin-1-yl)-2-oxoethyl)-N-ethylglycine] yielded an IC50 of 48 nM.

In the case of `Cc1ccc(NC(=O)C2(c3ccccc3C(C)C)CN(C(=O)CNCCC(=O)O)C2)c(OC(F)F)n1` [Ex 44, 3-((2-(3-((2-(difluoromethoxy)-6-methylpyridin-3-yl)carbamoyl)-3-(2-isopropylphenyl)azetidin-1-yl)-2-oxoethyl)amino)propanoic acid], the IC50 is reported as 155 nM.

`COCCN1CCC(CC(=O)N2CC(C(=O)Nc3ccc(C)nc3OC(F)F)(c3ccccc3C(C)C)C2)CC1` [Ex 12-139, N-(2-(difluoromethoxy)-6-methylpyridin-3-yl)-3-(2-isopropylphenyl)-1-(2-(1-(2-methoxyethyl)piperidin-4-yl)acetyl)azetidine-3-carboxamide] showed an IC50 of 165 nM.

For `Cc1ccc(NC(=O)C2(c3ccccc3C(C)C)CN(C(=O)[C@H](C)NC(=O)OC(C)(C)C)C2)c(OC(F)F)n1` [Ex 12-32, tert-butyl (S)-(1-(3-((2-(difluoromethoxy)-6-methylpyridin-3-yl)carbamoyl)-3-(2-isopropylphenyl)azetidin-1-yl)-1-oxopropan-2-yl)carbamate], the IC50 was 1720 nM.

`CCOC(=O)CNS(=O)(=O)N1CC(C(=O)Nc2ccc(C)nc2OC(F)F)(c2ccccc2C(C)C)C1` [Ex 15-1, Ethyl ((3-((2-(difluoromethoxy)-6-methylpyridin-3-yl)carbamoyl)-3-(2-isopropylphenyl)azetidin-1-yl)sulfonyl)glycinate] was tested, and the IC50 was 5 nM.

Compound “(R)-2-amino-5-(3-((2-(difluoromethoxy)-6-methylpyridin-3-yl)carbamoyl)-3-(2-isopropylphenyl)azetidin-1-yl)-5-oxopentanoic acid [Ex 49]” has an IC50 of 44 nM.

In the case of `COC(=O)C1(CN2CC(C(=O)Nc3ccc(C)nc3OC(F)F)(c3ccccc3C(C)C)C2)COC1` [Ex 11-90, methyl 3-((3-((2-(difluoromethoxy)-6-methylpyridin-3-yl)carbamoyl)-3-(2-isopropylphenyl)azetidin-1-yl)methyl)oxetane-3-carboxylate], the IC50 is reported as 45 nM.

In the case of `Cc1ccc(NC(=O)C2(c3ccccc3C(C)C)CCN(C(=O)Cn3cnnn3)CC2)c(OC(F)F)n1` [Ex 12-20, 1-(2-(1H-tetrazol-1-yl)acetyl)-N-(2-(difluoromethoxy)-6-methylpyridin-3-yl)-4-(2-isopropylphenyl)piperidine-4-carboxamide], the IC50 is reported as 2 nM.

`CC(=O)N(CCC(=O)N1CC(C(=O)Nc2ccc(C)nc2OC(F)F)(c2ccccc2C(C)C)C1)OCc1ccccc1` [Ex 12-131, 1-(3-(N-(benzyloxy)acetamido)propanoyl)-N-(2-(difluoromethoxy)-6-methylpyridin-3-yl)-3-(2-isopropylphenyl)azetidine-3-carboxamide] gave an IC50 of 640 nM.

`Cc1ccc(NC(=O)C2(c3ccccc3C(C)C)CN(C(=O)C[C@H]3COCCN3)C2)c(OC(F)F)n1` [Ex 12-44, (S)-N-(2-(difluoromethoxy)-6-methylpyridin-3-yl)-3-(2-isopropylphenyl)-1-(2-(morpholin-3-yl)acetyl)azetidine-3-carboxamide] gave an IC50 of 79 nM.

`Cc1ccc(NC(=O)C2(c3ccccc3C(C)C)CN(CCCC(C)(C)C#N)C2)c(OC(F)F)n1` [Ex 11-60, 1-(4-cyano-4-methylpentyl)-N-(2-(difluoromethoxy)-6-methylpyridin-3-yl)-3-(2-isopropylphenyl)azetidine-3-carboxamide] gave an IC50 of 47 nM.

Work on `Cc1ccc(NC(=O)C2(c3ccccc3C(C)C)CN(C(=O)C3C4CC3(C(=O)O)C4)C2)c(OC(F)F)n1` (centres unmarked) [Ex 12-108, 2-(3-((2-(difluoromethoxy)-6-methylpyridin-3-yl)carbamoyl)-3-(2-isopropylphenyl)azetidine-1-carbonyl)bicyclo[1.1.1]pentane-1-carboxylic acid] yielded an IC50 of 28 nM.

`Cc1ccc(NC(=O)C2(c3ccccc3C3CCOCC3)CN(c3nc(C(=O)O)co3)C2)c(OC(F)F)n1` [Ex 32, 2-(3-((2-(difluoromethoxy)-6-methylpyridin-3-yl)carbamoyl)-3-(2-(tetrahydro-2H-pyran-4-yl)phenyl)azetidin-1-yl)oxazole-4-carboxylic acid] was tested, and the IC50 was 447 nM.

Compound `COc1ccc(NC(=O)C2(c3ccccc3C(C)C)CN(C(=O)CC(C)(C)C(=O)O)C2)c(OC)n1` [Ex 12-86, 4-(3-((2,6-dimethoxypyridin-3-yl)carbamoyl)-3-(2-isopropylphenyl)azetidin-1-yl)-2,2-dimethyl-4-oxobutanoic acid] has an IC50 of 27 nM.

`COC(=O)CCC(=O)N1CC(C(=O)Nc2ccc(Cl)nc2OC)(c2ccccc2C(C)C)C1` [Ex 12-69, methyl 4-(3-((6-chloro-2-methoxypyridin-3-yl)carbamoyl)-3-(2-isopropylphenyl)azetidin-1-yl)-4-oxobutanoate] gave an IC50 of 230 nM.

In the case of `Cc1ccc(NC(=O)C2(c3ccccc3C(C)C)CN(C(=O)CNS(N)(=O)=O)C2)c(OC(F)F)n1` [Ex 12-128, N-(2-(difluoromethoxy)-6-methylpyridin-3-yl)-3-(2-isopropylphenyl)-1-(sulfamoylglycyl)azetidine-3-carboxamide], the IC50 is reported as 10 nM.

For `CCOC(=O)/C=C/C(=O)N1CC(C(=O)Nc2ccc(C)nc2OC(F)F)(c2ccccc2C(C)C)C1` [Ex 12-74, ethyl (E)-4-(3-((2-(difluoromethoxy)-6-methylpyridin-3-yl)carbamoyl)-3-(2-isopropylphenyl)azetidin-1-yl)-4-oxobut-2-enoate], the IC50 was 97 nM.

`Cc1ccc(NC(=O)C2(c3ccccc3C(C)C)CN(C(=O)CCOCCOCC(=O)O)C2)c(OC(F)F)n1` [Ex 12-121, 2-(2-(3-(3-((2-(difluoromethoxy)-6-methylpyridin-3-yl)carbamoyl)-3-(2-isopropylphenyl)azetidin-1-yl)-3-oxopropoxy)ethoxy)acetic acid] gave an IC50 of 310 nM.

`COc1ncccc1NC(=O)C1(c2ccccc2)CNC1` [Ex 85, N-(2-methoxypyridin-3-yl)-3-phenylazetidine-3-carboxamide, reference compound] was tested, and the IC50 was > 10000 nM.
